Measured values reported in US7595398B2, “N-(5-membered aromatic ring)-amido anti-viral compounds” (SmithKline Beecham Corporation, priority 2005, dated 2009).

test system: HCV replicon I389luc-ubi-neo/NS3-3′/ET in ET (Huh-lucubineo-ET) cells; screening for HCV RNA dependent RNA polymerase; assay: Replicon Assay (luciferase, ET cell line Huh-lucubineo-ET); assay type: cell-based; details: Hepatitis C virus; inhibition of replication relative to no compound control; test concentration of 10 μM according to the fitted equation; luciferase 48-72 hours
Experimental: A cell line, ET (Huh-lucubineo-ET) was used for screening of compounds of the present invention for HCV RNA dependent RNA polymerase. The ET cell line was stably transfected with RNA transcripts harboring a I389luc-ubi-neo/NS3-3′/ET; replicon with firefly luciferase-ubiquitin-neomycin phosphotransferase fusion protein and EMCV-IRES driven NS3-5B polyprotein containing the cell culture adaptive mutations (E1202G; T12801; K1846T) (Krieger at al, 2001 and unpublished). The ET cells were grown in DMEM, supplemented with 10% fetal calf serum, 2 mM Glutamine, Penicillin (100 IU/mL)/Streptomycin (100 μg/mL), 1× nonessential amino acids, and 250 μg/mL G418 (“Geneticin”). They were all available through Life Technologies (Bethesda, Md.). The cells were plated at 0.5-1.0×10^4 cells/well in the 96 well plates and incubated for 24 hrs before adding nucleoside analogs. […] Luciferase activity were measured 48-72 hours later by adding a lysis buffer and the substrate (Catalog number Glo-lysis buffer E2661 and Bright-Glo luciferase system E2620 Promega, Madison, Wis.). Cells should not be too confluent during the assay. Percent inhibition of replication was plotted relative to no compound control. Under the same condition, cytotoxicity of the compounds was determined using cell proliferation reagent, WST-1(Roche, Germany). The compounds showing antiviral activities, but no significant cytotoxicities were chosen to determine IC50 and TC50. For these determinations, 10 concentrations of each compound were used. Concentrations for test compounds typically span a range of 500 fold. IC50 and TC50 values were calculated by fitting % inhibition at each concentration (I) to the following equation: % inhibition=100%/[1+10^(log IC50−log (I))*b] where b is Hill's coefficient.

Compound | inhibition at 10 µM [%]
O=C(Nc1nc(-c2ccc(C(=O)N3CCN(CCO)CC3)cc2)cs1)[C@@H]1CCCN1C(=O)OCc1ccccc1 [Compound 5377, 2-(4-{4-[4-(2-Hydroxy-ethyl)-piperazine-1-carbonyl]-phenyl}-thiazol-2-ylcarbamoyl)-pyrrolidine-1-carboxylic acid benzyl ester] | 5.71
O=C(Nc1ncc(Cc2cccc([N+](=O)[O-])c2)s1)[C@@H]1CCCN1C(=O)OCc1ccccc1 [Compound 5047, 2-[5-(3-Nitrobenzyl)-thiazol-2-ylcarbamoyl]-pyrrolidine-1-carboxylic acid benzyl ester] | 37.7
CCC(=O)Nc1ccc(-c2csc(NC(=O)[C@@H]3CCCN3C(=O)OCc3ccccc3)n2)cc1 [Compound 5017, 2-[4-(4-Propionylamino-phenyl)-thiazol-2-ylcarbamoyl]-pyrrolidine-1-carboxylic acid benzyl ester] | 99.7
COc1c(F)c(F)c(-c2csc(NC(=O)[C@@H]3CCCN3C(=O)OCc3ccccc3)n2)c(F)c1F [Compound 5020, 2-[4-(2,3,5,6-Tetrafluoro-4-methoxy-phenyl)-thiazol-2-ylcarbamoyl]-pyrrolidine-1-carboxylic acid benzyl ester] | 58.2
O=C(Nc1cccc(-c2csc(NC(=O)C3CCCN3C(=O)OCc3ccccc3)n2)c1)C1CCCC1 (centres unmarked) [Compound 5026, 2-{4-[3-(Cyclopentanecarbonyl-amino)-phenyl]-thiazol-2-ylcarbamoyl}-pyrrolidine-1-carboxylic acid benzyl ester] | 100
O=C(Nc1nc(-c2ccc([N+](=O)[O-])cc2)cs1)[C@@H]1CCCN1C(=O)OCc1ccccc1 [Compound 5041, 2-[4-(4-Nitro-phenyl)-thiazol-2-ylcarbamoyl]-pyrrolidine-1-carboxylic acid benzyl ester] | 76
O=C(Nc1nc(-c2ccc(NCC3CCCC3)cc2)cs1)[C@@H]1CCCN1C(=O)OCc1ccccc1 [Compound 5380, 2-{4-[4-(Cyclopentylmethyl-amino)-phenyl]-thiazol-2-ylcarbamoyl}-pyrrolidine-1-carboxylic acid benzyl ester] | 98.3
COc1ccc(-c2csc(NC(=O)[C@@H]3CCCN3C(=O)OCc3ccccc3)n2)cc1OC [Compound 5054, 2-[4-(3,4-Dimethoxy-phenyl)-thiazol-2-ylcarbamoyl]-pyrrolidine-1-carboxylic acid benzyl ester] | 99.3
O=C(NC1CC1)c1ccc(-c2csc(NC(=O)C3CCCN3C(=O)OCc3cccnc3)n2)cc1 (centres unmarked) [Compound 5320, 2-[4-(4-Cyclopropylcarbamoyl-phenyl)-thiazol-2-ylcarbamoyl]-pyrrolidine-1-carboxylic acid pyridin-3-ylmethyl ester] | 99.8
COc1ccc(-c2csc(NC(=O)[C@@H]3CCCN3C(=O)OCc3ccccc3)n2)cc1[N+](=O)[O-] [Compound 5091, 2-[4-(4-Methoxy-3-nitro-phenyl)-thiazol-2-ylcarbamoyl]-pyrrolidine-1-carboxylic acid benzyl ester] | 100
O=C(NC1CC1)c1ccc(-c2csc(NC(=O)[C@@H]3CCCN3C(=O)OCc3ccccc3)n2)o1 [Compound 5351, 2-[4-(5-Cyclopropylcarbamoyl-furan-2-yl)-thiazol-2-ylcarbamoyl]-pyrrolidine-1-carboxylic acid benzyl ester] | 22.3
CC(=O)Nc1ccc(-c2csc(NC(=O)[C@@H]3CCCN3C(=O)OCc3ccccc3)n2)cc1 [Compound 5048, 2-[4-(4-Acetylamino-phenyl)-thiazol-2-ylcarbamoyl]-pyrrolidine-1-carboxylic acid benzyl ester] | 100
CC(C)CC1CC(C)(c2csc(NC(=O)[C@@H]3CCCN3C(=O)OCc3ccccc3)n2)OC1=O (stereo in doubt) [Compound 5009, 2-[4-(4-Isobutyl-2-methyl-5-oxo-tetrahydro-furan-2-yl)-thiazol-2-ylcarbamoyl]-pyrrolidine-1-carboxylic acid benzyl ester] | 63.4
O=C(Nc1ccccn1)c1ccc(-c2csc(NC(=O)[C@@H]3CCCN3C(=O)OCc3ccccc3)n2)cc1 [Compound 5372, 2-{4-[4-(Pyridin-2-ylcarbamoyl)-phenyl]-thiazol-2-ylcarbamoyl}-pyrrolidine-1-carboxylic acid benzyl ester] | 99.9
CN(C)c1ccc(-c2csc(NC(=O)C3CCCN3C(=O)OCc3ccccc3)n2)cc1 (centres unmarked) [Compound 5013, 2-[4-(4-Dimethylamino-phenyl)-thiazol-2-ylcarbamoyl]-pyrrolidine-1-carboxylic acid benzyl ester] | 97
O=C(Nc1nc(-c2c(F)cccc2F)cs1)[C@@H]1CCCN1C(=O)OCc1ccccc1 [Compound 5059, 2-[4-(2,6-Difluoro-phenyl)-thiazol-2-ylcarbamoyl]-pyrrolidine-1-carboxylic acid benzyl ester] | 88
O=C(NC1CCCC1)c1cccc(-c2cnc(NC(=O)[C@@H]3CCCN3C(=O)OCc3ccccc3)s2)c1 [Compound 5363, 2-[5-(3-Cyclopentylcarbamoyl-phenyl)-thiazol-2-ylcarbamoyl]-pyrrolidine-1-carboxylic acid benzyl ester] | 1.64
O=C(Nc1nc(-c2ccco2)cs1)[C@@H]1CCCN1C(=O)OCc1ccccc1 [Compound 5347, 2-(4-Furan-2-yl-thiazol-2-ylcarbamoyl)-pyrrolidine-1-carboxylic acid benzyl ester] | 94.7
Nc1cccc(-c2csc(NC(=O)C3CCCN3C(=O)OCc3ccccc3)n2)c1 (centres unmarked) [Compound 5001, 2-[4-(3-Amino-phenyl)-thiazol-2-ylcarbamoyl]-pyrrolidine-1-carboxylic acid benzyl ester] | 99.6
O=C1CC(c2csc(NC(=O)[C@@H]3CCCN3C(=O)OCc3ccccc3)n2)C2(CCCCC2)O1 (some centres unmarked) [Compound 5044, 2-[4-(2-Oxo-1-oxa-spiro[4.5]dec-4-yl)-thiazol-2-ylcarbamoyl]-pyrrolidine-1-carboxylic acid benzyl ester] | 16.9
O=C(Nc1nc(-c2ccc3ccccc3c2)cs1)[C@@H]1CCCN1C(=O)OCc1ccccc1 [Compound 5060, 2-(4-Naphthalen-2-yl-thiazol-2-ylcarbamoyl)-pyrrolidine-1-carboxylic acid benzyl ester] | 98.4
Cc1ccc(Cc2cnc(NC(=O)[C@@H]3CCCN3C(=O)OCc3ccccc3)s2)cc1Cl [Compound 5025, 2-[5-(3-Chloro-4-methyl-benzyl)-thiazol-2-ylcarbamoyl]-pyrrolidine-1-carboxylic acid benzyl ester] | 2.86
Cc1sc2nc(SCc3csc(NC(=O)[C@@H]4CCCN4C(=O)OCc4ccccc4)n3)n(C)c(=O)c2c1C [Compound 5032, 2-[4-(3,5,6-Trimethyl-4-oxo-3,4-dihydro-thieno[2,3-d]pyrimidin-2-ylsulfanylmethyl)-thiazol-2-ylcarbamoyl]-pyrrolidine-1-carboxylic acid benzyl ester] | 38.6
CNC(=O)c1ccc(-c2csc(NC(=O)[C@@H]3CCCN3C(=O)OCc3ccccc3)n2)cc1 [Compound 5105, 2-[4-(4-Methylcarbamoyl-phenyl)-thiazol-2-ylcarbamoyl]-pyrrolidine-1-carboxylic acid benzyl ester] | 100
CC(=O)c1ccc(Cc2cnc(NC(=O)[C@@H]3CCCN3C(=O)OCc3ccccc3)s2)cc1 [Compound 5053, 2-[5-(4-Acetyl-benzyl)-thiazol-2-ylcarbamoyl]-pyrrolidine-1-carboxylic acid benzyl ester] | 4.55
O=C(NC1CCCNC1)c1ccc(-c2csc(NC(=O)C3CCCN3C(=O)OCc3ccccc3)n2)cc1 (centres unmarked) [Compound 5343, 2-{4-[4-(Piperidin-3-ylcarbamoyl)-phenyl]-thiazol-2-ylcarbamoyl}-pyrrolidine-1-carboxylic acid benzyl ester] | 100
O=C(Nc1nc(CSc2nc3ccccc3[nH]2)cs1)[C@@H]1CCCN1C(=O)OCc1ccccc1 [Compound 5064, 2-[4-(1H-Benzoimidazol-2-ylsulfanylmethyl)-thiazol-2-ylcarbamoyl]-pyrrolidine-1-carboxylic acid benzyl ester] | 18.1
O=C(Nc1nc(-c2c(F)c(F)c(F)c(F)c2-c2ccccc2)cs1)[C@@H]1CCCN1C(=O)OCc1ccccc1 [Compound 5014, 2-[4-(3,4,5,6-Tetrafluoro-biphenyl-2-yl)-thiazol-2-ylcarbamoyl]-pyrrolidine-1-carboxylic acid benzyl ester] | 66.6
Cc1ccc(C)c(-c2cnc(NC(=O)[C@@H]3CCCN3C(=O)OCc3ccccc3)s2)c1 [Compound 5042, 2-[5-(2,5-Dimethyl-phenyl)-thiazol-2-ylcarbamoyl]-pyrrolidine-1-carboxylic acid benzyl ester] | 90.3
